Results on 11 molecules are retold here after ChEMBL document CHEMBL1135741, “Synthesis and biological evaluation of analogues of the peptaibol ampullosporin A” (J Med Chem, 2002).

The structures appear in SMILES notation. Where a SMILES comes first, the peptide text is derived from it. [ ]: non-standard residue; d: D form. ξ: configuration not given here. Oic(3aξ,7aξ) = O=C(O)[C@@H]1CC2CCCCC2N1; 2Nal = N[C@@H](Cc1ccc2ccccc2c1)C(=O)O; Igl = N[C@H](C(=O)O)C1Cc2ccccc2C1; Tic = O=C(O)[C@@H]1Cc2ccccc2CN1; Leu(ol) = CC(C)C[C@H](N)CO; Aib = CC(C)(N)C(=O)O

For one assay, the species on record is Mus musculus. Put plainly: Evaluated for its ability to modify the core body temperature of mice; No activity. It counts as functional, organism-based.
Assay [1] concerns Remotididymella destructiva. Put plainly: Evaluated for pigment induction capacity based on the Phoma destructiva halo color; No activity. The format is functional, organism-based.

`CC(=O)N[C@@H](Cc1c[nH]c2ccccc12)C(=O)N[C@@H](C)C(=O)NC(C)(C)C(=O)NC(C)(C)C(=O)N[C@@H](CC(C)C)C(=O)NC(C)(C)C(=O)N[C@@H](CCC(N)=O)C(=O)NC(C)(C)C(=O)NC(C)(C)C(=O)NC(C)(C)C(=O)N[C@@H](CCC(N)=O)C(=O)N[C@@H](CC(C)C)C(=O)NC(C)(C)C(=O)N[C@@H](CCC(N)=O)C(=O)O` (Ac-WA[Aib][Aib]L[Aib]Q[Aib][Aib][Aib]QL[Aib]Q-OH): the NA entry (in the assay filed under Mus musculus; in assay [1]) was “No activity” each time.

Regarding `CC(C)C[C@@H](CO)NC(=O)[C@H](CCC(N)=O)NC(=O)C(C)(C)NC(=O)[C@H](CC(C)C)NC(=O)[C@H](CCC(N)=O)NC(=O)C(C)(C)NC(=O)C(C)(C)NC(=O)C(C)(C)NC(=O)[C@H](CCC(N)=O)NC(=O)C(C)(C)NC(=O)[C@H](CC(C)C)NC(=O)C(C)(C)NC(=O)C(C)(C)NC(=O)[C@H](C)N` (H-A[Aib][Aib]L[Aib]Q[Aib][Aib][Aib]QL[Aib]Q[Leu(ol)]), the NA entry (in the assay listed under Mus musculus; in assay [1]) was “No activity” throughout. As for `CC(=O)N[C@@H](Cc1ccc2ccccc2c1)C(=O)N[C@@H](C)C(=O)NC(C)(C)C(=O)NC(C)(C)C(=O)N[C@@H](CC(C)C)C(=O)NC(C)(C)C(=O)N[C@@H](CCC(N)=O)C(=O)NC(C)(C)C(=O)NC(C)(C)C(=O)NC(C)(C)C(=O)N[C@@H](CCC(N)=O)C(=O)N[C@@H](CC(C)C)C(=O)NC(C)(C)C(=O)N[C@@H](CCC(N)=O)C(=O)N[C@H](CO)CC(C)C` (Ac-[2Nal]A[Aib][Aib]L[Aib]Q[Aib][Aib][Aib]QL[Aib]Q[Leu(ol)]), the NA result in the assay listed under Mus musculus was “No activity”. For the molecule `CC(=O)N[C@@H](Cc1c[nH]c2ccccc12)C(=O)N[C@@H](C)C(=O)N[C@@H](C)C(=O)N[C@@H](C)C(=O)N[C@@H](CC(C)C)C(=O)N[C@@H](C)C(=O)N[C@@H](CCC(N)=O)C(=O)N[C@@H](C)C(=O)N[C@@H](C)C(=O)N[C@@H](C)C(=O)N[C@@H](CCC(N)=O)C(=O)N[C@@H](CC(C)C)C(=O)N[C@@H](C)C(=O)N[C@@H](CCC(N)=O)C(=O)N[C@H](CO)CC(C)C` (Ac-WAAALAQAAAQLAQ[Leu(ol)]), the NA entry (in the assay filed under Mus musculus; in assay [1]) was “No activity” throughout.

As to `CC(=O)N[C@H](C(=O)N[C@@H](C)C(=O)NC(C)(C)C(=O)NC(C)(C)C(=O)N[C@@H](CC(C)C)C(=O)NC(C)(C)C(=O)N[C@@H](CCC(N)=O)C(=O)NC(C)(C)C(=O)NC(C)(C)C(=O)NC(C)(C)C(=O)N[C@@H](CCC(N)=O)C(=O)N[C@@H](CC(C)C)C(=O)NC(C)(C)C(=O)N[C@@H](CCC(N)=O)C(=O)N[C@H](CO)CC(C)C)C1Cc2ccccc2C1` (Ac-[Igl]A[Aib][Aib]L[Aib]Q[Aib][Aib][Aib]QL[Aib]Q[Leu(ol)]), the NA entry in the assay listed under Mus musculus is “No activity”. In the case of `CC(C)C[C@@H](CO)NC(=O)[C@H](CCC(N)=O)NC(=O)C(C)(C)NC(=O)[C@H](CC(C)C)NC(=O)[C@H](CCC(N)=O)NC(=O)C(C)(C)NC(=O)C(C)(C)NC(=O)C(C)(C)NC(=O)[C@H](CCC(N)=O)NC(=O)C(C)(C)NC(=O)[C@H](CC(C)C)NC(=O)C(C)(C)NC(=O)C(C)(C)NC(=O)[C@H](C)NC(=O)[C@@H](N)Cc1c[nH]c2ccccc12` (H-WA[Aib][Aib]L[Aib]Q[Aib][Aib][Aib]QL[Aib]Q[Leu(ol)]), the NA entry in the assay filed under Mus musculus was “No activity”.

For `CC(=O)N1Cc2ccccc2C[C@H]1C(=O)N[C@@H](C)C(=O)NC(C)(C)C(=O)NC(C)(C)C(=O)N[C@@H](CC(C)C)C(=O)NC(C)(C)C(=O)N[C@@H](CCC(N)=O)C(=O)NC(C)(C)C(=O)NC(C)(C)C(=O)NC(C)(C)C(=O)N[C@@H](CCC(N)=O)C(=O)N[C@@H](CC(C)C)C(=O)NC(C)(C)C(=O)N[C@@H](CCC(N)=O)C(=O)N[C@H](CO)CC(C)C` (Ac-[Tic]A[Aib][Aib]L[Aib]Q[Aib][Aib][Aib]QL[Aib]Q[Leu(ol)]), in the assay filed under Mus musculus, the NA entry is “No activity”. In the case of `CC[C@@H](C)[C@H](NC(=O)[C@H](CC(C)C)NC(=O)[C@@H](NC(=O)[C@@H](NC(=O)[C@H](C)NC(=O)[C@H](Cc1c[nH]c2ccccc12)NC(C)=O)[C@@H](C)CC)[C@H](C)CC)C(=O)N[C@@H](CCC(N)=O)C(=O)N[C@H](C(=O)N[C@H](C(=O)N[C@H](C(=O)N[C@@H](CCC(N)=O)C(=O)N[C@@H](CC(C)C)C(=O)N[C@H](C(=O)N[C@@H](CCC(N)=O)C(=O)N[C@H](CO)CC(C)C)[C@@H](C)CC)[C@H](C)CC)[C@@H](C)CC)[C@H](C)CC`, the NA entry (in the assay listed under Mus musculus; in assay [1]) was “No activity” in each case. For the molecule `CC(=O)N[C@@H](C)C(=O)NC(C)(C)C(=O)NC(C)(C)C(=O)N[C@@H](CC(C)C)C(=O)NC(C)(C)C(=O)N[C@@H](CCC(N)=O)C(=O)NC(C)(C)C(=O)NC(C)(C)C(=O)NC(C)(C)C(=O)N[C@@H](CCC(N)=O)C(=O)N[C@@H](CC(C)C)C(=O)NC(C)(C)C(=O)N[C@@H](CCC(N)=O)C(=O)N[C@H](CO)CC(C)C` (Ac-A[Aib][Aib]L[Aib]Q[Aib][Aib][Aib]QL[Aib]Q[Leu(ol)]), the NA entry (in the assay listed under Mus musculus; in assay [1]) was “No activity” in each case. As for `CC(=O)N1C2CCCCC2C[C@H]1C(=O)N[C@@H](C)C(=O)NC(C)(C)C(=O)NC(C)(C)C(=O)N[C@@H](CC(C)C)C(=O)NC(C)(C)C(=O)N[C@@H](CCC(N)=O)C(=O)NC(C)(C)C(=O)NC(C)(C)C(=O)NC(C)(C)C(=O)N[C@@H](CCC(N)=O)C(=O)N[C@@H](CC(C)C)C(=O)NC(C)(C)C(=O)N[C@@H](CCC(N)=O)C(=O)N[C@H](CO)CC(C)C` (some centres not stated) (Ac-[Oic(3aξ,7aξ)]A[Aib][Aib]L[Aib]Q[Aib][Aib][Aib]QL[Aib]Q[Leu(ol)]), the NA entry (in the assay listed under Mus musculus; in assay [1]) was “No activity” throughout. On to `CC(=O)N[C@@H](Cc1c[nH]c2ccccc12)C(=O)N[C@@H](C)C(=O)NC(C)(C)C(=O)NC(C)(C)C(=O)N[C@@H](CC(C)C)C(=O)N[C@@H](C)C(=O)N[C@@H](CCC(N)=O)C(=O)NC(C)(C)C(=O)NC(C)(C)C(=O)NC(C)(C)C(=O)N[C@@H](CCC(N)=O)C(=O)N[C@@H](CC(C)C)C(=O)NC(C)(C)C(=O)N[C@@H](CCC(N)=O)C(=O)N[C@H](CO)CC(C)C` (Ac-WA[Aib][Aib]LAQ[Aib][Aib][Aib]QL[Aib]Q[Leu(ol)]), for which, in the assay filed under Mus musculus, the NA result was “No activity”.
